These results are taken from US20210353579A1, “HIGH PENETRATION COMPOSITIONS AND USES THEREOF” (Techfields Pharma Co., Ltd., priority 2006, published 2021).

A short description of series [1]: Plasma levels after transdermal administration to hairless mice. It counts as in vivo. Conditions: mouse, in vivo. The procedure:
Tested compounds (20% solution or suspension in 1 mL isopropanol) are administered transdermally to the skin of intact hairless mice. The plasma levels of the parent compounds are determined by HPLC.

A further series deals with mice. Description: Analgesic activity, acetic acid writhing. It counts as in vivo. Conditions: 30 min before acetic acid. As to the method: The prodrug compounds are administered either transdermally or orally. The parent compounds are administered orally. The number of writhing that occurred when mice are administered the acetic acid solution are counted, and the rate of inhibition based on the control group which was not pretreated with any test compounds is calculated. […] The A group is the control group.

The subject of series [2] is rats. Description: Antipyretic activity, E. coli suspension as pyrogen. The settings on record: in °C (unit assumed). It counts as in vivo. As to the method: Rats are administered with sterilized E. coli suspension as a pyrogen. Each group of rats are administered with a prodrug compounds or parent compounds at a dosage specified below. The prodrug compounds are administered either orally or transdermally. The parent compounds are administered orally.

Another series has as its system sun damaged skin. In words: Treatment of sun damaged skin of subjects. It counts as in vivo. Conditions: applied to sun damaged skin. The source says: Diethylaminoethyl acetylsalicylate.AcOH is applied to subjects' the sun damaged skin. […] 92% of the subjects treated experienced improved elasticity and firmness, and 95% experienced overall improvement in texture and tone. The results shown that HPPs of aspirin and related compounds may be used to treat skin conditions.

For series [3] the following is noted: pH 7.
For the next series, the system named is human skin tissue. Conditions: pH 7.4.
The next series concerns rat. The settings on record: rats.
The subject of a further series is β-amyloid (Aβ). In words: Tg2576 mouse model of Alzheimer disease: Aβ and senile plaques. In kind it is in vivo. An excerpt: For many years, efforts have been focused on the development of inhibitors of β-amyloid (Aβ) formation and its related neurotoxic effects. To determine the effect of diethylaminopropyl acetylsalicylate. HCl on in vivo Aβ accumulation, we administered transdermally diethylaminopropyl acetylsalicylate. […] Three-month-old female transgenic mice overexpressing the human APP gene containing the Swedish mutation that causes familial AD (Tg2576 line) were used for testing the effects of diethylaminopropyl acetylsalicylate.HCl in vivo. 20 Tg2576 mice were divided into 2 groups. […] In group B (n=10), 50 mg/kg of diethylaminopropyl acetylsalicylate.HCl in 0.2 ml of pure water was applied to the back of mouse once per day for 2 months. Then the animals were killed and their brains were removed for analysis. For Aβ analysis, hemibrains were dounce homogenized in 70% formic acid at 150 mg tissue/ml formic acid solution. Homogenates were transferred to a chilled ultracentrifuge and were then spun at 100,000 g for 1 h at 4° C. Supernatants were collected and neutralized with formic acid neutralization buffer (1.0 M Tris base, 0.5 M NaH2PO4, and 0.05% NaN3; 1:20) for Aβ quantitation by ELISA. Aβ40 and Aβ42 were assayed by ELISA. Four individual experiments were performed. To compare across studies, the values for an individual study were normalized using the values obtained for the control animals included in each study. Values represent the mean±SE for the n number shown, after normalizing.

The test system of the next series is Tg2576 mouse. In words: Tg2576 mice: radial-arm water-maze test of working memory. In kind it is in vivo. The settings on record: 50 mg/kg, 2 months. As to the method:
To determine if the transdermal administration of diethylaminopropyl acetylsalicylate.HCl has beneficial functional consequences, we tested 2 months of diethylaminopropyl acetylsalicylate.HCl (50 mg/kg) in the transgenic model for Alzheimer's disease in which mice develop learning deficits as amyloid accumulates. […] In the diethylaminopropyl acetylsalicylate.HCl (50 mg/kg) treated group, all mice performed superbly on the radial-arm water-maze test of working memory and untreated transgenic mice show memory deficits. […] This therapeutic approach can thus prevent and treat Alzheimer's dementia.

Series [4] has as its system rats. In words: Spinal cord injury, recovery from paralysis. It counts as in vivo, rat. The settings on record: 5 mg in 0.2 ml water on the area of injury twice per day for 1 months. The procedure: A group of rat was anesthetized with chloral hydrate, the spinal cord of rats was hit to induce spinal cord injury. At the next day, 20 completely paralyzed rats were divided into 2 groups. […] In group B (n=10), 5 mg of diethylaminopropyl acetylsalicylate.HCl in 0.2 ml of pure water was applied to the area of injury (˜2×3 cm^2) twice per day for 1 months. After the treatment, all rats (10/10) in control group (group A) were still completely paralyzed. We were excited to see that all rats (10/10) in the diethylaminopropyl acetylsalicylate.HCl treated group (group B) could walk. 4 Rats of them were completely normal and other 6 rats walked more slowly and less confidently than their injury. This therapeutic approach can treat spinal cord injury in humans and animals.

The mark [5] stands for this setting: 50 mg/kg transdermally, 2 months.

Molecules are shown by their SMILES.
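For LD50 of HPP in this document: acute toxicity in rats expressed as LD50, determined for both prodrugs and their parent compounds.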

Consider `CCN(CC)CCOC(=O)c1ccccc1OC(C)=O` [diethylaminoethyl acetylsalicylate.AcOH], for which, in [1], the “Peak plasma concentration of parent compound after prodrug compound” value was 30 mg/L and the “t, time to peak plasma level of parent compound after prodrug compound” value is 20 min. In addition, in the series on mice (50 mg/kg orally), the “% (rate of writhing inhibition)” value is 54% and the “No. of Writhing” value turned out to be 15.4. In the series on mice (50 mg/kg transdermally), the “% (rate of writhing inhibition)” value is given as 56% and the “No. of Writhing” value came to 14.5. In the series with mice (100 mg/kg orally), the “% (rate of writhing inhibition)” value was determined as 67% and the “No. of Writhing” value worked out at 11.0. Besides, in the series with mice (100 mg/kg transdermally), the “% (rate of writhing inhibition)” value was found to be 70% and the “No. of Writhing” value is 10.1. Moreover, in the series with rats [2] (100 mg/kg orally), the “body temperature, t = 0 min” value was 37.25 ± 0.09; the “body temperature, t = 90 min” value is 36.40 ± 0.15; the “body temperature, t = 180 min” value worked out at 36.50 ± 0.09; the “body temperature, t = 270 min” value came out at 36.40 ± 0.15. In the series with rats [2] (100 mg/kg transdermally), the “body temperature, t = 0 min” value was found to be 37.19 ± 0.07; the “body temperature, t = 90 min” value came to 36.40 ± 0.05; the “body temperature, t = 180 min” value came to 36.38 ± 0.05; the “body temperature, t = 270 min” value was 36.40 ± 0.15. In addition, in the series with rats [2] (150 mg/kg orally), the “body temperature, t = 0 min” value was 37.18 ± 0.07; the “body temperature, t = 90 min” value is reported as 36.30 ± 0.15; the “body temperature, t = 180 min” value worked out at 36.28 ± 0.07; the “body temperature, t = 270 min” value is given as 36.20 ± 0.09. Besides, in the series on rats [2] (150 mg/kg transdermally), the “body temperature, t = 0 min” value was 37.33 ± 0.05; the “body temperature, t = 90 min” value came to 36.27 ± 0.15; the “body temperature, t = 180 min” value was determined as 36.26 ± 0.07; the “body temperature, t = 270 min” value was 36.22 ± 0.08. In the series with sun damaged skin, the reduction in roughness is 89%; the “reduction in the appearance of fine lines and wrinkles” value is given as 85%; the “reduction in the look of freckles, moles, dark spots, and other discolorations” value is reported as 85%; the reduction of acne worked out at 97%. For the same compound, in the series on sun damaged skin, the “subjects that experienced overall improvement in texture and tone” value is 95%; the “subjects treated that experienced improved elasticity and firmness” value was 92%. The “Solubility of HPP” value in series [3] is recorded as >300 g/L. For the same compound, in the series with human skin tissue, the “In vitro penetration rate (apparent flux), prodrug compounds” value was found to be 1000 μg/cm^2/h. Besides, in the series with rat, the “LD50 of HPP” value is reported as 2.3 g/kg.
For `CCN(CC)CCCOC(=O)c1ccccc1OC(C)=O.Cl` [diethylaminopropyl acetylsalicylate.HCl], the “reduction in the number of senile plaques” value in the series with β-amyloid (Aβ) (50 mg/kg transdermally over 2 months) was 70-80%. Also, in the series on β-amyloid (Aβ) (setting [5]), the “reduction in Aβ42 concentration in the brain” value came to 70% and the “reduction of the amount of Aβ detected in the brains” value worked out at 70%. Besides, the Aß42 concentration with β-amyloid (Aβ) (Tg2576 mice, 50 mg/kg transdermally once per day for 2 months) is on record as 2.3 ± 0.3 pmol/g tissue. Further, the “cognitive performance, radial-arm water-maze test of working memory” value in the series on Tg2576 mouse is recorded as “performed as well as nontransgenic mice”. Moreover, in the series with rats [4], the “rats completely normal after treatment” value worked out at 4 and the “rats that could walk after treatment” value is on record as 10/10.
